Reference: patent US12403200B2, “Methods and compositions for treating autoimmune diseases” (priority 2019, dated 2025)

Experiments:
C57BL/6 (CD45.2+) mice = assay: MOG-induced EAE model with congenic transplant; assay type: in vivo, mouse
Method: Experimental Autoimmune Encephalomyelitis (EAE) Model: C57BL/6 (CD45.2) mice were induced with MOG35-55 peptide in complete Freund's adjuvant, followed by the administration of pertussis toxin (PTX) at 4 h post MOG35-55 and 24 h post initial dose of PTX. Disease onset was around 9-12 days post induction. Animals were scored twice a day for a duration of 80 days post EAE induction. EAE Clinical Scoring Scale: 1-limp tail; 2-partial hind limb paralysis; 3-Complete hind limb paralysis; 4-Complete hind and partial front limb paralysis; 5-moribund bound. Animals were euthanized at 2 consecutive scores of 4. Terminal analysis of tissues (peripheral blood, lymph nodes) were evaluated to determine chimerism and immune component of the relapsing EAE mice. Lymph node cells were stimulated (S) with PMS/lonomycin (50 ng/mL) and Brefeldin A (1 μg/mL) or not stimulated (NS) and evaluated for T cell chimerism (donor, host) and IL-17 production.
To induce EAE in a murine model, C57BL/6 (CD45.2+) mice were induced with MOG35_55 peptide in complete Freund's adjuvant, followed by the administration of pertussis toxin (PTX). […]

[1] = Quintieri et al. 2005; cited from earlier work

Compound | Incidence (C57BL/6 (CD45.2+) mice; Table 3, EAE incidence, treatment groups of FIG. 5G) [%] | Mean Time to EAE onset (C57BL/6 (CD45.2+) mice; Table 3, treatment groups of FIG. 5G) [days] | peak disease score in active EAE (C57BL/6 (CD45.2+) mice; treatment at day 13) | progression of disease activity in active EAE (C57BL/6 (CD45.2+) mice; treatment on day 10 or day 13) | cytotoxicity relative to the parent nemorubicin [1]
CCCCCCCCc1ccc(CCC(N)(CO)CO)cc1 [FTY-720, reference compound] | 100 | 12 | 2.3 | halted disease | 
COc1cccc2c1C(=O)c1c(O)c3c(c(O)c1C2=O)C[C@@](O)(C(=O)CO)C[C@@H]3O[C@H]1CC2[C@H](O[C@@H]3[C@@H](OC)OCCN23)[C@H](C)O1 (some centres unmarked) [PNU-159682] |  |  |  |  | greater than 3000 fold
